Source: ChEMBL document CHEMBL4765414, “Rhodamine B-based fluorescent probes for molecular mechanism study of the anti-influenza activity of pentacyclic triterpenes” (Eur J Med Chem, 2020)
Activity calls are given as the source filed them. No cut-off for these calls is given here.

How the values were obtained:
[1] = tested on: Influenza A virus; experiment: Antiviral activity against Influenza A virus A/WSN/33(H1N1) infected in MDCK cells assessed as inhibition of viral replication measured after 36 hrs by CellTiter-Glo assay; format: functional, organism-based; settings: A/WSN/1933(H1N1)
[2] = tested on: Influenza A virus; experiment: Antiviral activity against Influenza A virus A/WSN/33(H1N1) infected in MDCK cells assessed as inhibition of virus-induced cytopathic effects at 50 uM after 36 hrs by microscopic analysis; format: functional, A/WSN/1933(H1N1); parameters: scale not given: the % may be the effect or the level left
[3] = tested on: MDCK; experiment: Cytotoxicity against dog MDCK cells assessed as reduction in cell viability at 50 uM measured after 36 hrs by Celltiter-Glo luminescence assay; format: cell-based, Canis lupus familiaris
[4] = tested on: Influenza A virus (A/WSN/1933(H1N1)); experiment: Binding affinity to recombinant influenza A virus A/WSN/33(H1N1) hemagglutin assessed as association constant by surface plasmon resonance assay
[5] = Binding affinity to recombinant influenza A virus A/WSN/33(H1N1) hemagglutin assessed as dissociation constant by surface plasmon resonance assay; parameters: species or system Influenza A virus (A/WSN/1933(H1N1))
[6] = Binding affinity to recombinant influenza A virus A/WSN/33(H1N1) hemagglutin by surface plasmon resonance assay; parameters: species or system Influenza A virus (A/WSN/1933(H1N1))
[7] = Selectivity ratio of CC50 for MDCK cells to IC50 for Influenza A virus A/WSN/33(H1N1) infected in MDCK cells; format: toxicity, cell-based; settings: dog, read-out: Ratio CC50/IC50
[8] = Cytotoxicity against dog MDCK cells assessed as reduction in cell viability measured after 36 hrs by Celltiter-Glo luminescence assay; format: cell-based, Canis lupus familiaris
[9] = Stability of compound in dog MDCK cells after 36 hrs; format: ADME, cell-based, Canis lupus familiaris
[10] = Drug uptake in dog MDCK cells assessed as increase in red fluorescence at 25 uM incubated for 3 hrs by flow cytometry analysis; format: ADME, cell-based, Canis lupus familiaris
[11] = Drug uptake in dog MDCK cells assessed as increase in red fluorescence at 25 uM incubated for 1 hr by flow cytometry analysis; format: ADME, cell-based, Canis lupus familiaris
[12] = Drug uptake in dog MDCK cells assessed as increase in red fluorescence at 25 uM incubated for 36 hrs by flow cytometry analysis; format: ADME, cell-based, Canis lupus familiaris
[13] = tested on: Erythrocyte; experiment: Inhibition of Influenza A virus A/WSN/33(H1N1) hemagglutinin assessed as inhibition of chicken erythrocytes hemagglutination upto 20 uM incubated for 30 mins; format: cell-based; settings: Influenza A virus (A/WSN/1933(H1N1)), dose microM <=20, time 30.0 min
[14] = tested on: Influenza A virus; experiment: Antiviral activity against Influenza A virus A/WSN/33(H1N1) infected in MDCK cells assessed as inhibition of virus-induced cell death at 50 uM preincubated with cells for 30 mins followed by viral infection for 1 hr and measured after 36 hrs; format: functional, A/WSN/1933(H1N1); parameters: scale not given: the % may be the effect or the level left; settings: time 2250 min, 37.5 h
[15] = Drug localization in cytoplasm of MDCK cells at 25 uM incubated for 12 hrs by confocal microscopy analysis; format: ADME, subcellular, Canis lupus familiaris; settings: dog
[16] = tested on: Influenza A virus; experiment: Antiviral activity against Influenza A virus A/WSN/33(H1N1) infected in MDCK cells assessed as inhibition of virus-induced cell death at 50 uM cotreated with virus and cells for 1 hrs and measured after 36 hrs; format: functional, A/WSN/1933(H1N1); parameters: scale not given: the % may be the effect or the level left; settings: time 37 hrs
[17] = tested on: Influenza A virus; experiment: Antiviral activity against Influenza A virus A/WSN/33(H1N1) infected in MDCK cells preincubated with cells for 12 hrs followed by viral infection; format: functional, organism-based; settings: A/WSN/1933(H1N1)
[18] = tested on: Influenza A virus; experiment: Antiviral activity against Influenza A virus A/WSN/33(H1N1) infected in MDCK cells assessed as inhibition of virus-induced cell death at 50 uM preincubated with virus for 30 mins followed by cell infection for 1 hr and measured after 36 hrs; format: functional, A/WSN/1933(H1N1); parameters: scale not given: the % may be the effect or the level left; settings: time 2250 min, 37.5 h
[19] = tested on: Influenza A virus; experiment: Antiviral activity against Influenza A virus A/WSN/33(H1N1) infected in MDCK cells preincubated with cells for 5 hrs followed by viral infection; format: functional, organism-based; settings: A/WSN/1933(H1N1)
[20] = Drug localization in cell membrane of MDCK cells at 25 uM incubated for 1 to 3 hrs by DOI staining based confocal microscopy analysis; format: ADME, cell membranes, Canis lupus familiaris; settings: dog, time 1-3 hrs
[21] = tested on: Influenza A virus; experiment: Antiviral activity against Influenza A virus A/WSN/33(H1N1) infected in MDCK cells assessed as reduction in antiviral activity preincubated with cells for 3 hrs followed by viral infection; format: functional, A/WSN/1933(H1N1); parameters: scale not given: the % may be the effect or the level left
[22] = tested on: Influenza A virus; experiment: Antiviral activity against Influenza A virus A/WSN/33(H1N1) infected in MDCK cells assessed as inhibition of viral replication at 100 uM measured after 36 hrs by CellTiter-Glo assay; format: functional, organism-based; settings: A/WSN/1933(H1N1)

## CCN(CC)c1ccc2c(c1)Oc1cc(N(CC)CC)ccc1C21c2ccccc2C(=O)N1CCNC(=O)[C@]12CCC(C)(C)C[C@@H]1C1=CC[C@@H]3[C@@]4(C)CC[C@H](O)C(C)(C)[C@@H]4CC[C@@]3(C)[C@]1(C)CC2
[1]
  IC50: 14.3 µM
[2]
  Activity: >90%
[3]
  Activity: Non-Toxic

## C[C@H]1[C@H](C)CC[C@]2(C(=O)O)CC[C@]3(C)C(=CC[C@@H]4[C@@]5(C)CC[C@H](O)C(C)(C)[C@@H]5CC[C@]43C)[C@@H]12
[4]
  Ka: 1.73 10^3/M.s
[5]
  Kd: 7.1 10^-2/s
[2]
  Activity: 31%
[6]
  Kd: 41 µM

## C=C(C)[C@@H]1CC[C@]2(C(=O)NCCN3C(=O)c4ccccc4C34c3ccc(N(CC)CC)cc3Oc3cc(N(CC)CC)ccc34)CC[C@]3(C)[C@H](CC[C@@H]4[C@@]5(C)CC[C@H](O)C(C)(C)[C@@H]5CC[C@]43C)[C@@H]12
[7]
  selectivity ratio: 38.8
[1]
  IC50: 8.36 µM
[3]
  Activity: Non-Toxic
[8]
  CC50 at 36 h: 324 µM

## CC1(C)CC[C@]2(C(=O)O)CC[C@]3(C)C(=CC[C@@H]4[C@@]5(C)CC[C@H](O)C(C)(C)[C@@H]5CC[C@]43C)[C@H]2C1
[2]
  Activity: 17%

## CCN(CC)c1ccc2c(c1)Oc1cc(N(CC)CC)ccc1C21c2ccccc2C(=O)N1CCNC(=O)[C@]12CCC(C)(C)C[C@@H]1C1=CC[C@@H]3[C@@]4(C)CC[C@H](O)C(C)(C)[C@@H]4CC[C@@]3(C)[C@]1(C)C[C@H]2O
[1]
  IC50: 13.3 µM
[2]
  Activity: >90%
[3]
  Activity: Non-Toxic

## CCN(CC)c1ccc2c(c1)Oc1cc(N(CC)CC)ccc1C21c2ccccc2C(=O)N1CCNC(=O)[C@]12CC[C@@H](C)[C@H](C)[C@@H]1C1=CC[C@@H]3[C@@]4(C)CC[C@H](O)C(C)(C)[C@@H]4CC[C@@]3(C)[C@]1(C)CC2
[9]
  Stabilty: Stable
[10]
  Drug uptake: 62.6%
[11]
  Drug uptake: 52.4%
[4]
  Ka: 2.33 10^3/M.s
[12]
  Drug uptake: 97.5%
[13]
  inhibition: Active
[7]
  selectivity ratio: 44.7
[5]
  Kd: 4.14 10^-2/s
[14]
  Activity: 15%
[1]
  IC50: 8.24 µM
[15]
  Drug uptake: Active
[16]
  Activity: 91%
[2]
  Activity: >90%
[2]; A/WSN/1933(H1N1)
  Activity: Active
[3]
  Activity: Non-Toxic
[17]
  Activity: inactive
[18]
  Activity: 95%
[6]
  Kd: 17.8 µM
[19]
  Activity: inactive
[8]
  CC50 at 36 h: 368 µM
[20]
  Drug uptake: Active
[21]
  Activity: 25%

## CCN(CC)c1ccc2c(-c3ccccc3C(=O)O)c3ccc(=[N+](CC)CC)cc-3oc2c1 [RHODAMINE]
[1]
  IC50: > 100 µM
[22]
  Activity: inactive
